According to paper PMC9499386, “New Inhibitors of the Human p300/CBP Acetyltransferase Are Selectively Active against the Arabidopsis HAC Proteins” (International Journal of Molecular Sciences, 2022):

Legend:
[1] = biological target: T1, HAC1 catalytic domain (recombinant HAC1) (Arabidopsis thaliana, UniProt Q9C5X9); experiment: colorimetric antibody-based HAT activity assay (EpiGentek P-4003), […] nm; format: biochemical
T1 construct: HAT catalytic domain aa 1081-1517 (nt 3241-4551 of CDS), C-terminal 6xHis tag, pET28a, E. coli BL21(DE3), partially purified, 52 kDa

[2] = biological target: T1, HAC1 catalytic domain (recombinant HAC1); experiment: as above; format: biochemical; settings: kit HAT substrate as acetyl acceptor, 45 min at 37 °C; partially purified enzyme

T1 sequence (Q9C5X9 1081-1517): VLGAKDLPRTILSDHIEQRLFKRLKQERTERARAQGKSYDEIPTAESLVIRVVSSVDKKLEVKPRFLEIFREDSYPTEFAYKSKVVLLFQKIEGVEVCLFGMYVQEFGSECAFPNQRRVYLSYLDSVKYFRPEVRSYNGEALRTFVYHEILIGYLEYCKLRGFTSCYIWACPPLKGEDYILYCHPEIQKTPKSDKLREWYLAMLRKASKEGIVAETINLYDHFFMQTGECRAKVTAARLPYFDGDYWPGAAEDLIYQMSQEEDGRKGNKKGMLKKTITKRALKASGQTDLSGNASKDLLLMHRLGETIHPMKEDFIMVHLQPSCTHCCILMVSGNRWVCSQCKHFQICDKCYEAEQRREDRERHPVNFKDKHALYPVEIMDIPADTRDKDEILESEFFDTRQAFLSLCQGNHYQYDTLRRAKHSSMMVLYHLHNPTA

SMILES	inhibition at 6 µM [1]	colorimetric antibody-based HAT activity assay (EpiGentek P-4003), 450 nm [2]
O=C1C(Cc2ccc(O)c(Br)c2)CCCC1Cc1ccc(O)c(Br)c1 (centres unmarked) [2c, 2,6-Bis(3-bromo-4-hydroxybenzyl)cyclohexanone]	83%	–
CC(=O)SCCNC(=O)CCNC(=O)[C@H](O)C(C)(C)COP(=O)(O)OP(=O)(O)OC[C@H]1O[C@@H](n2cnc3c(N)ncnc32)[C@H](O)[C@@H]1OP(=O)(O)O [acetyl-CoA]	–	strip wells were incubated with acetyl-CoA and partially purified HAC1 catalytic domain
